Assays:
[1] = molecular target: ARAF (Homo sapiens (Human), UniProt P10398); test: ARAF kinase activity assay (AlphaLISA p-MEK 1/2 detection); assay type: biochemical
Procedure: Compound preparation: solid samples of each substances in 1 dram vials were suspended in DMSO (Fisher Scientific) at a stock concentration of 20 mM. Stocks were kept at −20° C. and protected from light. If solubility of the compound at 20 mM appeared to be an issue, the initial concentration of the DMSO stock was changed to 10 mM or 5 mM.
In vitro enzymatic reactions were used for evaluating compounds intrinsic activity against BRAF, CRAF and ARAF. For BRAF and CRAF, 0.375 nM of purified GST-tagged kinases (cat #B4062-10 UG and cat #R1656-10 UG respectively from Millipore Sigma) were incubated with 75 nM of kinase-dead MEK1 substrate (cat #40075; BPS Bioscience) in the presence of 10 μM of Ultrapure ATP (cat #V9102; Promega; part V915A) with and without the test compound in a buffer containing 50 mM HEPES pH 7.5, 10 mM MgCl2, 1 mM EDTA, 0.01% Brij-35 and 2 mM DTT. Separate reactions were performed with the MEK1 substrate and ATP as a blank control. ARAF, kinase reactions were rigorously the same with the exception that kinase concentration was raised to 3.75 nM (cat #1768-0000-1; Reaction Biology).
For compound treatment, 5 μL/well of test substance solution are placed in a 384-well proxyplate (Perkin Elmer) and mixed with 2× concentrated kinase reactions. The dilution series is selected so that nine concentrations cover a range from 100 nM to 0.01 nM. […] The final concentration of DMSO in the assay is set at 0.05%.
ARAF kinase reactions were carried out for a total of 2 hours at 30° C. and then stopped by addition of EDTA at a final concentration of 40 mM. Reactions were then detected using the AlphaLISA® SureFire® Ultra™ p-MEK 1/2 (Ser218/222) (PerkinElmer) kit. Reactions were performed with 5 μL of kinase reaction according to the manufacturer's specifications in 384-well proxyplates (Perkin Elmer) followed by overnight incubation of the AlphaLISA® reactions at room temperature in a humidified chamber. After completion of the detection reactions, the signals were recorded on a Synergy Neo2 plate reader (Biotek) equipped with AlphaLISA® filters. The effect of each compound dilution on the pMEK signal generated by ARAF reactions was expressed in % inhibition and calculated as follows. An internal 100% inhibition control (average of luminescence in kinase reactions comprising kinase dead MEK1 substrate alone) was included in each plate to measure of pMEK background and was subtracted from each data point. The average of DMSO (vehicle) controls (set as 0% inhibition) was also established and used to calculate % inhibition: % inhibition=100*(1−((pMEK signalcompound)/(pMEK signalDMSO)))
IC50 values were obtained by plotting the kinase inhibition values and fitting the dose-activity curves using a log(agonist) versus response-variable slope (four parameters) function using either GraphPadPrism (V7.0) or Dotmatics Screening Ultra platform. Standards included in the ARAF kinase assay were Belvarafenib (MedChem Express cat #HY-109080; CAS #1446113-23-0), LXH254 (MedChem Express cat #HY-112089; CAS #1800398-38-2) and BGB283 (cat #HY-18957; CAS #1446090-79-4).

[2] = tested on: pERK in SK-MEL30 cells (NRAS-Q61K); test: Phospho-ERK inhibition (AlphaLISA), SK-MEL30; assay type: cell-based, human; conditions: for SK-MEL30 pERK % Ymin: SK-MEL30, value in parentheses
Procedure: All cancer cell lines (A375, A101D, A2058, RKO, HT29 SK-MEL 30, IPC298, HepG2, HCT-116, Lovo, SWV620, SW480, NCI-H358, NCI-H2122, Calu-6, NCIH2087, NCIH1755, NCIH1666 and Mewo) were obtained from ATCC and cultured in RPMI-1640 medium (Gibco) supplemented with 5% heat inactivated fetal bovine serum (FBS, Wisent) at 37° C. under 5% CO2. Cells were maintained in T175 flasks (Greiner). They were passaged by removing the culture medium, washing once in 10 mL of room temperature Phosphate Buffered Saline (PBS; Wisent) and incubating at 37° C. with 2 mL of 0.05% Trypsin (Thermo-Fisher). Trypsin was then inactivated by adding complete growth medium and the cells were then replated in a T175 culture dish at the appropriate dilution. All cell lines were routinely tested for mycoplasma contamination. Tissue type and mutational status of each cell line can be found in Table B.
AlphaLISA® SureFire® Ultra™ p-ERK 1/2 (Thr202/Tyr204) analysis was conducted on cells plated in 100 μL of complete RPMI-1640 growth medium in 96-well flat-bottomed transparent dishes (Costar) at a density indicated in Table C. Cells were maintained overnight at 37° C. under 5% CO2 before treatment with compounds' dilution series for one hour. The cell density in cells/cm^2 corresponds to cell number divided by the area of one well of a 96-well plate ([…]).
In a dilution series 100 μL/well of test substance dilution prepared in complete RPMI-1640 growth media was added to the cells. The dilution series is selected so that ten concentrations cover a range from 10 μM to 0.33 nM. If necessary the initial concentration of 10 μM is increased to 100 μM or lowered to 1 μM (as in the case of A375 and H1666 cells, which are generally more sensitive to the compounds) and further dilution is carried out accordingly. The final concentration of DMSO in the assay is set at 0.5%.
After treatment, media was removed and cells were lysed in 50 μL of 1× AlphaScreen Ultra Lysis Buffer (Perkin Elmer). The AlphaLISA® SureFire® Ultra™ p-ERK 1/2 (Thr202/Tyr2O4) (PerkinElmer) reactions were performed with 5 μL of cell lysate according to the manufacturer's specifications in 384-well proxyplates (Perkin Elmer) followed by overnight incubation of the reactions at room temperature in a humidified chamber. After completion of the reactions, the signals were recorded on an EnVision plate reader (Perkin Elmer) using built in AlphaLISA® settings.
The effect of each compound dilution on the pERK signal was expressed in % inhibition and calculated as follows. An internal 100% inhibition control ([…] trametinib, cat #HY-10999; MedChem Express; CAS #871700-17-3) was included in each plate and used as a measure of pERK background. First, the value obtained for trametinib was subtracted from each data point. The average of DMSO (vehicle) controls (set as 0% inhibition) was established and used to calculate % inhibition: % inhibition=100*(1-((pERK signalcompound)/(pERK signalDMSO)))
The ability of each compound to inhibit pERK signal was expressed as an IC50 value obtained by plotting the inhibition values for each data point of a dilution series and fitting the obtained curves using a log(agonist) versus response-variable slope (four parameters) function using GraphPadPrism (V7.0) or Dotmatics Screening Ultra platform.
When present, paradoxical pERK induction is inferred from the negative % inhibition values observed in the pERK IC50 curves of a compound.

Sequence of ARAF (P10398 whole entry): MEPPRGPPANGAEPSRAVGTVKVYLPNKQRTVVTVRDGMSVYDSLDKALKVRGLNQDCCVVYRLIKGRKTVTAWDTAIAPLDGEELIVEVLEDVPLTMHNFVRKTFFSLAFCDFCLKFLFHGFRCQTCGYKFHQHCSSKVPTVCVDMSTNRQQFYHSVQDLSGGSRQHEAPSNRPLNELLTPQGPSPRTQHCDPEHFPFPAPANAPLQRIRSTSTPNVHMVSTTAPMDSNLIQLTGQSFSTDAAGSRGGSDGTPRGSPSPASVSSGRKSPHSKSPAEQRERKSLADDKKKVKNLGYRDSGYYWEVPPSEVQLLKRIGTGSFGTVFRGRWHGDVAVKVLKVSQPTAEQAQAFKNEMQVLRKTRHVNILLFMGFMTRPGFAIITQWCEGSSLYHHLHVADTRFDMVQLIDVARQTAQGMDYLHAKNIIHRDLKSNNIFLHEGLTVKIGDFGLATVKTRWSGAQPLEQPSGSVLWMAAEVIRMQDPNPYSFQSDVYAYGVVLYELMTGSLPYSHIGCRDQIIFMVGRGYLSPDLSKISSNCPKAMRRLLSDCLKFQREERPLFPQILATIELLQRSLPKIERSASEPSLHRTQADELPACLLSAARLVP

Structure (SMILES) | IC50 [1] | IC50 ([2]; Homo sapiens, SK-MEL-30) | SK-MEL30 pERK % Ymin [2] | IC50 ([2]; SK-MEL30)
Cc1ccc2c(Nc3cccc(Cl)c3F)nccc2c1NC(=O)c1csc2c(N)ncnc12 [Belvarafenib, reference compound] | > 10 nM | < 30 nM | −45% | 
Nc1cccc2c1ncn2-c1ccc2ncnc(Nc3c(F)ccc(NS(=O)(=O)c4cccc(Cl)c4Cl)c3F)c2n1 [Example 99] | < 1 nM |  | −1% | < 30 nM
CC1(O)CCN(c2cccc3c2ncn3-c2ccc3ncnc(Nc4c(F)ccc(NS(=O)(=O)c5cccc(Cl)c5Cl)c4F)c3n2)CC1 [Example 524] | 1 to 10 nM |  | −13% | < 30 nM
